Laboratory results: patent publication US20260248799A1, “COMBINATIONS OF RETINALDEHYDE DEHYDROGENASE 1 (RALDH1) INHIBITORS AND IMMUNOSTIMULATORS AND METHODS USING SAME” (The Trustees of the University of Pennsylvania, priority 2023, published 2026)

Columns and labels:
[1] = test system: ATPase, Na+/K+, Heart, Pig; assay: Safetyscreen: ATPase, Na+/K+; format: biochemical; conditions: 10 μM
[2] = test system: murine monocytes from bone marrow; assay: Murine monocyte DC differentiation with SNU398 cells or conditioned media; format: cell-based, mouse; conditions: HCC cells pre-treated
Source text: FIGS. 22A-22E: RALDH1 inhibition blocks RA-mediated effects of HCC on monocyte differentiation. FIGS. 22A-22B: Circulating primary human monocytes from donors (FIG. 22A) or murine monocytes from bone marrow (FIG. 22B) were cocultured with SNU398 (Human HCC) cells or treated with SNU398-conditioned media (CM) in a DC differentiation system (GM-CSF and IL-4). Two-color histograms show the frequencies of DCs (CD11c^+CD1a^+ for human and CD11c^+MHCII^+ for mouse). The presence of SNU398 or its CM suppressed DC differentiation, which is reversed when SNU398 cells are treated with C86. Three or more independent experiments were performed with at least three replicates per experimental group. Unpaired t test, two-tailed. FIG. 22C: Huh7 (human HCC) cells were subcutaneously injected into flanks of NU/J mice. 12 days later the tumor size was about 50 mm^3 and C86 or vehicle treatment (10 mg/kg, i.p, daily injection) was started. […] The frequencies of the host (murine) DCs (CD45^+F4/80^−CD11C^+MHCII-high) and macrophages (CD45^+F4/80^+) are quantified in a bar graph. […] Shown are the representative FCM plot (histogram) and DC quantification (bar graph). […]
Monocytes were isolated from bone marrow of C57BL/6 mice using the Mouse BM Monocyte Isolation Kit (Miltenyi Biotec) according to manufacturer's instructions. Purity of monocyte was assessed by flow cytometry using CD11b, Ly6C, and Ly6G. […]

CS(=O)(=O)N1CCN(C(=O)c2cnc3ccc(F)cc3c2N2CCC(C#N)(c3ccccc3)CC2)CC1 [Compound C-86, 1-(6-fluoro-3-(4-(methylsulfonyl)piperazine-1-carbonyl)quinolin-4-yl)-4-phenylpiperidine-4-carbonitrile]
% Inh. ATPase, Na+/K+, Heart, Pig [1]: 2%
suppression of DC differentiation by HCC cells or CM [2]: reversed
